According to ChEMBL document CHEMBL5038625, “Application of the dual-tail approach for the design and synthesis of novel Thiopyrimidine-Benzenesulfonamide hybrids as selective carbonic anhydrase inhibitors” (Eur J Med Chem, 2022):

Columns and labels:
SK-MEL-28 = experiment: Antiproliferative activity against human SK-MEL-28 cells assessed as cell growth inhibition at 10 uM incubated for 24 hrs by sulforhodamine B assay; type: functional; conditions: read-out: GI
SN12C = experiment: Antiproliferative activity against human SN12C cells assessed as cell growth inhibition at 10 uM incubated for 24 hrs by sulforhodamine B assay; type: functional; conditions: read-out: GI
SF-539 = experiment: Antiproliferative activity against human SF-539 cells assessed as cell growth inhibition at 10 uM incubated for 24 hrs by sulforhodamine B assay; type: functional; conditions: read-out: GI
Malme-3M = experiment: Antiproliferative activity against human Malme-3M cells assessed as cell growth inhibition at 10 uM incubated for 24 hrs by sulforhodamine B assay; type: functional; conditions: read-out: GI
NCI-H522 = experiment: Antiproliferative activity against human NCI-H522 cells assessed as cell growth inhibition at 10 uM incubated for 24 hrs by sulforhodamine B assay; type: functional; conditions: read-out: GI
KM12 = experiment: Antiproliferative activity against human KM12 cells assessed as cell growth inhibition at 10 uM incubated for 24 hrs by sulforhodamine B assay; type: functional; conditions: read-out: GI
CCRF-CEM = experiment: Antiproliferative activity against human CCRF-CEM cells assessed as cell growth inhibition at 10 uM incubated for 24 hrs by sulforhodamine B assay; type: functional; conditions: read-out: GI
MDA-MB-435 = experiment: Antiproliferative activity against human MDA-MB-435 cells assessed as cell growth inhibition at 10 uM incubated for 24 hrs by sulforhodamine B assay; type: functional; conditions: read-out: GI
SW-620 = experiment: Antiproliferative activity against human SW-620 cells assessed as cell growth inhibition at 10 uM incubated for 24 hrs by sulforhodamine B assay; type: functional; conditions: read-out: GI
HT-29 = experiment: Antiproliferative activity against human HT-29 cells assessed as cell growth inhibition at 10 uM incubated for 24 hrs by sulforhodamine B assay; type: functional; conditions: read-out: GI
HCT-116 = experiment: Antiproliferative activity against human HCT-116 cells assessed as cell growth inhibition at 10 uM incubated for 24 hrs by sulforhodamine B assay; type: functional; conditions: read-out: GI
K562 = experiment: Antiproliferative activity against human K562 cells assessed as cell growth inhibition at 10 uM incubated for 24 hrs by sulforhodamine B assay; type: functional; conditions: read-out: GI
HOP-92 = experiment: Antiproliferative activity against human HOP-92 cells assessed as cell growth inhibition at 10 uM incubated for 24 hrs by sulforhodamine B assay; type: functional; conditions: read-out: GI
NCI-H460 = experiment: Antiproliferative activity against human NCI-H460 cells assessed as cell growth inhibition at 10 uM incubated for 24 hrs by sulforhodamine B assay; type: functional; conditions: read-out: GI
LOX IMVI = experiment: Antiproliferative activity against human LOX IMVI cells assessed as cell growth inhibition at 10 uM incubated for 24 hrs by sulforhodamine B assay; type: functional; conditions: read-out: GI
OVCAR-8 = experiment: Antiproliferative activity against human OVCAR-8 cells assessed as cell growth inhibition at 10 uM incubated for 24 hrs by sulforhodamine B assay; type: functional; conditions: read-out: GI
Carbonic anhydrase 9 = Carbonic anhydrase 9 (Homo sapiens, UniProt Q16790); experiment: Inhibition of human CA9 preincubated for 15 mins by phenol red dye based stopped flow CO2 hydration assay
786-0 = experiment: Antiproliferative activity against human 786-0 cells assessed as cell growth inhibition at 10 uM incubated for 24 hrs by sulforhodamine B assay; type: functional; conditions: read-out: GI
NCI-H226 = experiment: Antiproliferative activity against human NCI-H226 cells assessed as cell growth inhibition at 10 uM incubated for 24 hrs by sulforhodamine B assay; type: functional; conditions: read-out: GI
UACC-62 = experiment: Antiproliferative activity against human UACC-62 cells assessed as cell growth inhibition at 10 uM incubated for 24 hrs by sulforhodamine B assay; type: functional; conditions: read-out: GI
MCF7 [1] = experiment: Antiproliferative activity against human MCF7 cells assessed as reduction in cell viability incubated for 24 hrs by sulforhodamine B assay; type: functional, cell-based; conditions: MCF7, 24 h
HCT-15 = experiment: Antiproliferative activity against human HCT-15 cells assessed as cell growth inhibition at 10 uM incubated for 24 hrs by sulforhodamine B assay; type: functional; conditions: read-out: GI
SR = experiment: Antiproliferative activity against human SR cells assessed as cell growth inhibition at 10 uM incubated for 24 hrs by sulforhodamine B assay; type: functional; conditions: read-out: GI
A549 = experiment: Antiproliferative activity against human A549 cells assessed as cell growth inhibition at 10 uM incubated for 24 hrs by sulforhodamine B assay; type: functional; conditions: read-out: GI
DU-145 = experiment: Antiproliferative activity against human DU-145 cells assessed as cell growth inhibition at 10 uM incubated for 24 hrs by sulforhodamine B assay; type: functional; conditions: read-out: GI
MDA-MB-231 [2] = experiment: Antiproliferative activity against human MDA-MB-231 cells assessed as reduction in cell viability incubated for 24 hrs by sulforhodamine B assay; type: functional, cell-based; conditions: MDA-MB-231, 24 h
OVCAR-4 = experiment: Antiproliferative activity against human OVCAR-4 cells assessed as cell growth inhibition at 10 uM incubated for 24 hrs by sulforhodamine B assay; type: functional; conditions: read-out: GI
M14 = experiment: Antiproliferative activity against human M14 cells assessed as cell growth inhibition at 10 uM incubated for 24 hrs by sulforhodamine B assay; type: functional; conditions: read-out: GI
RXF 393 = experiment: Antiproliferative activity against human RXF 393 cells assessed as cell growth inhibition at 10 uM incubated for 24 hrs by sulforhodamine B assay; type: functional; conditions: read-out: GI
SK-MEL-5 = experiment: Antiproliferative activity against human SK-MEL-5 cells assessed as cell growth inhibition at 10 uM incubated for 24 hrs by sulforhodamine B assay; type: functional; conditions: read-out: GI
MCF7 [3] = experiment: Antiproliferative activity against human MCF7 cells assessed as cell growth inhibition at 10 uM incubated for 24 hrs by sulforhodamine B assay; type: functional; conditions: read-out: GI
UO-31 = experiment: Antiproliferative activity against human UO-31 cells assessed as cell growth inhibition at 10 uM incubated for 24 hrs by sulforhodamine B assay; type: functional; conditions: read-out: GI
SNB-75 = experiment: Antiproliferative activity against human SNB-75 cells assessed as cell growth inhibition at 10 uM incubated for 24 hrs by sulforhodamine B assay; type: functional; conditions: read-out: GI
NCI/ADR-RES = experiment: Antiproliferative activity against human NCI-ADR-RES cells assessed as cell growth inhibition at 10 uM incubated for 24 hrs by sulforhodamine B assay; type: functional; conditions: read-out: GI
MOLT-4 = experiment: Antiproliferative activity against human MOLT-4 cells assessed as cell growth inhibition at 10 uM incubated for 24 hrs by sulforhodamine B assay; type: functional; conditions: read-out: GI
T47D [4] = experiment: Antiproliferative activity against human T47D cells assessed as reduction in cell viability incubated for 24 hrs by sulforhodamine B assay; type: functional, cell-based
CAKI-1 = experiment: Antiproliferative activity against human CAKI-1 cells assessed as cell growth inhibition at 10 uM incubated for 24 hrs by sulforhodamine B assay; type: functional; conditions: read-out: GI
U-251 = experiment: Antiproliferative activity against human U-251 cells assessed as cell growth inhibition at 10 uM incubated for 24 hrs by sulforhodamine B assay; type: functional; conditions: read-out: GI
NCI-H23 = experiment: Antiproliferative activity against human NCI-H23 cells assessed as cell growth inhibition at 10 uM incubated for 24 hrs by sulforhodamine B assay; type: functional; conditions: read-out: GI
MDA-MB-231 [5] = experiment: Antiproliferative activity against human MDA-MB-231 cells assessed as cell growth inhibition at 10 uM incubated for 24 hrs by sulforhodamine B assay; type: functional; conditions: read-out: GI
BT-549 = experiment: Antiproliferative activity against human BT-549 cells assessed as cell growth inhibition at 10 uM incubated for 24 hrs by sulforhodamine B assay; type: functional; conditions: read-out: GI
SF-268 = experiment: Antiproliferative activity against human SF-268 cells assessed as cell growth inhibition at 10 uM incubated for 24 hrs by sulforhodamine B assay; type: functional; conditions: read-out: GI
OVCAR-3 = experiment: Antiproliferative activity against human OVCAR-3 cells assessed as cell growth inhibition at 10 uM incubated for 24 hrs by sulforhodamine B assay; type: functional; conditions: read-out: GI
PC-3 = experiment: Antiproliferative activity against human PC-3 cells assessed as cell growth inhibition at 10 uM incubated for 24 hrs by sulforhodamine B assay; type: functional; conditions: read-out: GI
SF-295 = experiment: Antiproliferative activity against human SF-295 cells assessed as cell growth inhibition at 10 uM incubated for 24 hrs by sulforhodamine B assay; type: functional; conditions: read-out: GI
IGROV-1 = experiment: Antiproliferative activity against human IGROV-1 cells assessed as cell growth inhibition at 10 uM incubated for 24 hrs by sulforhodamine B assay; type: functional; conditions: read-out: GI
HOP-62 = experiment: Antiproliferative activity against human HOP-62 cells assessed as cell growth inhibition at 10 uM incubated for 24 hrs by sulforhodamine B assay; type: functional; conditions: read-out: GI
TK-10 = experiment: Antiproliferative activity against human TK-10 cells assessed as cell growth inhibition at 10 uM incubated for 24 hrs by sulforhodamine B assay; type: functional; conditions: read-out: GI
ACHN = experiment: Antiproliferative activity against human ACHN cells assessed as cell growth inhibition at 10 uM incubated for 24 hrs by sulforhodamine B assay; type: functional; conditions: read-out: GI
RPMI-8226 = experiment: Antiproliferative activity against human RPMI-8226 cells assessed as cell growth inhibition at 10 uM incubated for 24 hrs by sulforhodamine B assay; type: functional; conditions: read-out: GI
T47D [6] = experiment: Antiproliferative activity against human T47D cells assessed as cell growth inhibition at 10 uM incubated for 24 hrs by sulforhodamine B assay; type: functional; conditions: read-out: GI
SNB-19 = experiment: Antiproliferative activity against human SNB-19 cells assessed as cell growth inhibition at 10 uM incubated for 24 hrs by sulforhodamine B assay; type: functional; conditions: read-out: GI

Cc1ccc(-c2nc(SCC(=O)c3ccccc3)nc(Nc3ccc(S(N)(=O)=O)cc3)c2C#N)cc1
inhibition of growth at 10 µM (SK-MEL-28): 18.9%
inhibition of growth at 10 µM (SN12C): 37%
inhibition of growth at 10 µM (SF-539): 81.7%
inhibition of growth at 10 µM (Malme-3M): 66.4%
inhibition of growth at 10 µM (NCI-H522): 12.9%
inhibition of growth at 10 µM (KM12): 27.2%
inhibition of growth at 10 µM (CCRF-CEM): 18%
inhibition of growth at 10 µM (MDA-MB-435): 53%
inhibition of growth at 10 µM (SW-620): 16.2%
inhibition of growth at 10 µM (HT-29): 7.65%
inhibition of growth at 10 µM (HCT-116): 64.1%
inhibition of growth at 10 µM (K562): 29.9%
inhibition of growth at 10 µM (HOP-92): 62.4%
inhibition of growth at 10 µM (NCI-H460): 34.8%
inhibition of growth at 10 µM (LOX IMVI): 84.5%
inhibition of growth at 10 µM (OVCAR-8): 65.4%
Ki (Carbonic anhydrase 9): 0.0074 µM
inhibition of growth at 10 µM (786-0): 53.7%
inhibition of growth at 10 µM (NCI-H226): 28.6%
inhibition of growth at 10 µM (UACC-62): 19.7%
IC50 (MCF7 [1]): > 100 µM
inhibition of growth at 10 µM (HCT-15): 27.9%
inhibition of growth at 10 µM (SR): 43.1%
inhibition of growth at 10 µM (A549): 12.6%
inhibition of growth at 10 µM (DU-145): 39.3%
IC50 (MDA-MB-231 [2]): > 100 µM
inhibition of growth at 10 µM (OVCAR-4): 75.7%
inhibition of growth at 10 µM (M14): 63.3%
inhibition of growth at 10 µM (RXF 393): 48.2%
inhibition of growth at 10 µM (SK-MEL-5): 24.5%
inhibition of growth at 10 µM (MCF7 [3]): 34.9%
inhibition of growth at 10 µM (UO-31): 25.1%
inhibition of growth at 10 µM (SNB-75): 20%
inhibition of growth at 10 µM (NCI/ADR-RES): 18.3%
inhibition of growth at 10 µM (MOLT-4): 13.4%
IC50 (T47D [4]): > 100 µM
inhibition of growth at 10 µM (CAKI-1): 48.5%
inhibition of growth at 10 µM (U-251): 52.6%
inhibition of growth at 10 µM (NCI-H23): 65.5%
inhibition of growth at 10 µM (MDA-MB-231 [5]): 67%
inhibition of growth at 10 µM (BT-549): 26.2%
inhibition of growth at 10 µM (SF-268): 23.3%
inhibition of growth at 10 µM (OVCAR-3): 96%
inhibition of growth at 10 µM (PC-3): 7.4%
inhibition of growth at 10 µM (SF-295): 63.3%
inhibition of growth at 10 µM (IGROV-1): 13.7%
inhibition of growth at 10 µM (HOP-62): 73.8%
inhibition of growth at 10 µM (TK-10): 32.5%
inhibition of growth at 10 µM (ACHN): 10.3%
inhibition of growth at 10 µM (RPMI-8226): 34.6%
inhibition of growth at 10 µM (T47D [6]): 16.1%
inhibition of growth at 10 µM (SNB-19): 22.8%
